In patent US6376497B1, “Antifungal azole derivatives having a fluorinated vinyl group and process for preparing same” (Korea Research Institute of Chemical Technology, priority 1999, dated 2002):

Assays:
Experiment in all cases: In vitro antifungal activity, microbroth dilution MIC
Format in all cases: cell-based
[1] = system: Candida tropicalis A. 13803; details: 4 to 48 hours; for Minimal inhibitory concentration (MIC): C. tropicalis A. 13803, RPMI-1640, 35° C.; for Minimal inhibitory concentration(MIC), C. tropicalis A. 13803: RPMI-1640, 35° C., no growth observed
Outline: (§1)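 Broth microdilution adapted from NCCLS M27, in RPMI-1640 with 0.165 M MOPS, pH 7.0. Yeast or mould inoculum at 2×10^3 CFU/ml was mixed 1:1 with DMSO-derived compound solutions (200 to 0.10 μg/ml before mixing) and incubated at 35 °C for 4 to 48 h. MIC was the concentration showing no growth.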

[2] = system: Candida albicans A. 10231; details: 4 to 48 hours; for Minimal inhibitory concentration (MIC): C. albicans A. 10231, RPMI-1640, 35° C.; for Minimal inhibitory concentration(MIC), C. albicans A. 10231: RPMI-1640, 35° C., no growth observed
Outline: as §1

[3] = system: Cryptococcus neoformans A. 34144; details: for Minimal inhibitory concentration (MIC): Cry. neoformans A. 34144, RPMI-1640, 35° C.; for Minimal inhibitory concentration(MIC), Cry. neoformans A. 34144: RPMI-1640, 35° C., no growth observed
Outline: as §1

[4] = system: Cryptococcus neoformans B. 42419; details: 4 to 48 hours; for Minimal inhibitory concentration (MIC): Cry. neoformans B. 42419, RPMI-1640, 35° C.; for Minimal inhibitory concentration(MIC), Cry. neoformans B. 42419: RPMI-1640, 35° C., no growth observed
Outline: as §1

[5] = system: Aspergillus furnigatus B. 19119; details: for Minimal inhibitory concentration (MIC): A furnigatus B. 19119, RPMI-1640, 35° C.; for Minimal inhibitory concentration(MIC), A furnigatus B. 19119: RPMI-1640, 35° C., no growth observed
Outline: as §1

[6] = system: Trichophyton mentagrophytes A. 9129; details: for Minimal inhibitory concentration (MIC): T. mentagrophytes A. 9129, RPMI-1640, 35° C.; for Minimal inhibitory concentration(MIC), T. mentagrophytes A. 9129: RPMI-1640, 35° C., no growth observed
Outline: as §1

[7] = system: Cryptococcus neoformans IFM. 40092; details: for Minimal inhibitory concentration (MIC): Cry. neoformans IFM. 40092, RPMI-1640, 35° C.; for Minimal inhibitory concentration(MIC), Cry. neoformans IFM. 40092: RPMI-1640, 35° C., no growth observed
Outline: as §1

Candida albicans C1-2 = details: 4 to 48 hours; for Minimal inhibitory concentration (MIC): C. albicans C1-2, RPMI-1640, 35° C.; for Minimal inhibitory concentration(MIC), C. albicans C1-2: RPMI-1640, 35° C., no growth observed
Outline: as §1

[8] = system: Aspergillus niger A. 16404; details: for Minimal inhibitory concentration (MIC): A. niger A. 16404, RPMI-1640, 35° C.; for Minimal inhibitory concentration(MIC), A. niger A. 16404: RPMI-1640, 35° C., no growth observed
Outline: as §1

[9] = system: Torulopsis glabrata B. 16205; details: 4 to 48 hours; for Minimal inhibitory concentration (MIC): T. glabrata B. 16205, RPMI-1640, 35° C.; for Minimal inhibitory concentration(MIC), T. glabrata B. 16205: RPMI-1640, 35° C., no growth observed
Outline: as §1

[10] = system: Candida pseudotropicalis K. 11658; details: 4 to 48 hours; for Minimal inhibitory concentration (MIC): C. pseudotropicalis K. 11658, RPMI-1640, 35° C.; for Minimal inhibitory concentration(MIC), C. pseudotropicalis K. 11658: RPMI-1640, 35° C., no growth observed
Outline: as §1

[11] = system: Trichophyton mentagrophytes B. 32663; details: for Minimal inhibitory concentration (MIC): T. mentagrophytes B. 32663, RPMI-1640, 35° C.; for Minimal inhibitory concentration(MIC), T. mentagrophytes B. 32663: RPMI-1640, 35° C., no growth observed
Outline: as §1

[12] = system: Candida albicans IFO. 1385; details: 4 to 48 hours; for Minimal inhibitory concentration (MIC): C. albicans IFO. 1385, RPMI-1640, 35° C.; for Minimal inhibitory concentration(MIC), C. albicans IFO. 1385: RPMI-1640, 35° C., no growth observed
Outline: as §1

Candida krusei K. 11655 = details: 4 to 48 hours; for Minimal inhibitory concentration (MIC): C. krusei K. 11655, RPMI-1640, 35° C.; for Minimal inhibitory concentration(MIC), C. krusei K. 11655: RPMI-1640, 35° C., no growth observed
Outline: as §1

[13] = system: Candida parapsitosis A. 7330; details: 4 to 48 hours; for Minimal inhibitory concentration (MIC): C. parapsitosis A. 7330, RPMI-1640, 35° C.; for Minimal inhibitory concentration(MIC), C. parapsitosis A. 7330: RPMI-1640, 35° C., no growth observed
Outline: as §1

Compound | Minimal inhibitory concentration (MIC) [1] [µg/mL] | Minimal inhibitory concentration (MIC) [2] [µg/mL] | Minimal inhibitory concentration (MIC) ([3]; 4 to 48 hours) [µg/mL] | Minimal inhibitory concentration (MIC) [4] [µg/mL] | Minimal inhibitory concentration (MIC) ([5]; 4 to 48 hours) [µg/mL] | Minimal inhibitory concentration (MIC) ([6]; 4 to 48 hours) [µg/mL] | Minimal inhibitory concentration (MIC) ([7]; 4 to 48 hours) [µg/mL] | Minimal inhibitory concentration (MIC) (Candida albicans C1-2) [µg/mL] | Minimal inhibitory concentration (MIC) ([8]; 4 to 48 hours) [µg/mL] | Minimal inhibitory concentration (MIC) [9] [µg/mL] | Minimal inhibitory concentration (MIC) [10] [µg/mL] | Minimal inhibitory concentration(MIC), C. tropicalis A. 13803 [1] [µg/mL] | Minimal inhibitory concentration(MIC), C. albicans A. 10231 [2] [µg/mL] | Minimal inhibitory concentration(MIC), Cry. neoformans B. 42419 [4] [µg/mL] | Minimal inhibitory concentration(MIC), C. albicans C1-2 (Candida albicans C1-2) [µg/mL] | Minimal inhibitory concentration(MIC), T. glabrata B. 16205 [9] [µg/mL] | Minimal inhibitory concentration(MIC), C. pseudotropicalis K. 11658 [10] [µg/mL] | Minimal inhibitory concentration(MIC), C. albicans IFO. 1385 [12] [µg/mL] | Minimal inhibitory concentration(MIC), C. krusei K. 11655 (Candida krusei K. 11655) [µg/mL] | Minimal inhibitory concentration(MIC), C. parapsitosis A. 7330 [13] [µg/mL] | other results
FC(OCC1COC(Cn2ccnc2)(c2ccc(Cl)cc2Cl)O1)=C(c1cccc(F)c1)C(F)(F)F (mixture of isomers) [Ex. 32] | 25.0 | 6.25 | 0.78 | 1.56 | 50.0 | 12.5 | 0.39 | 6.25 | 100 | 12.5 | 100 | – | – | – | – | – | – | – | – | – | Minimal inhibitory concentration (MIC) ([11]; 4 to 48 hours): 6.25 µg/mL; Minimal inhibitory concentration (MIC) [12]: 0.78 µg/mL; Minimal inhibitory concentration (MIC) (Candida krusei K. 11655): >100 µg/mL; Minimal inhibitory concentration (MIC) [13]: >100 µg/mL
FC(Oc1ccc(OCC2COC(Cn3ccnc3)(c3ccc(F)cc3F)O2)cc1)=C(c1ccc(Oc2ccccc2)cc1)C(F)(F)F (mixture of isomers) [Ex. 113] | – | – | – | – | – | – | – | – | – | – | – | >100 | >100 | 3.13 | >100 | >100 | 100 | 3.13 | >100 | >100 | Minimal inhibitory concentration(MIC), Cry. neoformans A. 34144 ([3]; 4 to 48 hours): 1.56 µg/mL; Minimal inhibitory concentration(MIC), A furnigatus B. 19119 ([5]; 4 to 48 hours): >100 µg/mL; Minimal inhibitory concentration(MIC), T. mentagrophytes A. 9129 ([6]; 4 to 48 hours): 25.0 µg/mL; Minimal inhibitory concentration(MIC), Cry. neoformans IFM. 40092 ([7]; 4 to 48 hours): 0.39 µg/mL; Minimal inhibitory concentration(MIC), A. niger A. 16404 ([8]; 4 to 48 hours): >100 µg/mL; Minimal inhibitory concentration(MIC), T. mentagrophytes B. 32663 ([11]; 4 to 48 hours): 12.5 µg/mL
FC(=C(c1ccc(F)cc1)C(F)(F)F)N1CCN(c2ccc(OCC3COC(Cn4ccnc4)(c4ccc(F)cc4F)O3)cc2)CC1 (mixture of isomers) [Ex. 148] | – | – | – | – | – | – | – | – | – | – | – | >100 | >100 | 0.78 | >100 | 50.0 | 0.78 | 0.39 | 0.39 | 0.78 | Minimal inhibitory concentration(MIC), Cry. neoformans A. 34144 [3]: 0.78 µg/mL; Minimal inhibitory concentration(MIC), A furnigatus B. 19119 [5]: 6.25 µg/mL; Minimal inhibitory concentration(MIC), T. mentagrophytes A. 9129 [6]: 3.13 µg/mL; Minimal inhibitory concentration(MIC), Cry. neoformans IFM. 40092 [7]: ≦0.10 μg/ml; Minimal inhibitory concentration(MIC), A. niger A. 16404 [8]: 100 µg/mL; Minimal inhibitory concentration(MIC), T. mentagrophytes B. 32663 [11]: ≦0.10 μg/ml
CCc1ccc(C=C(F)OCC2COC(Cn3ccnc3)(c3ccc(F)cc3F)O2)cc1 (mixture of isomers) [Ex. 39] | 25.0 | 12.5 | 1.56 | 1.56 | 12.5 | 6.25 | 0.20 | 12.5 | 50.0 | 6.25 | 12.5 | – | – | – | – | – | – | – | – | – | Minimal inhibitory concentration (MIC) ([11]; 4 to 48 hours): 1.56 µg/mL; Minimal inhibitory concentration (MIC) [12]: 0.39 µg/mL; Minimal inhibitory concentration (MIC) (Candida krusei K. 11655): 25.0 µg/mL; Minimal inhibitory concentration (MIC) [13]: 12.5 µg/mL
COc1cccc(C=C(F)Oc2ccc(OCC3COC(Cn4ccnc4)(c4ccc(Cl)cc4Cl)O3)cc2)c1 (mixture of isomers) [Ex. 90] | – | – | – | – | – | – | – | – | – | – | – | >100 | 100 | 6.25 | 100 | 100 | >100 | 12.5 | >100 | >100 | Minimal inhibitory concentration(MIC), Cry. neoformans A. 34144 ([3]; 4 to 48 hours): 12.5 µg/mL; Minimal inhibitory concentration(MIC), A furnigatus B. 19119 ([5]; 4 to 48 hours): >100 µg/mL; Minimal inhibitory concentration(MIC), T. mentagrophytes A. 9129 ([6]; 4 to 48 hours): 50.0 µg/mL; Minimal inhibitory concentration(MIC), Cry. neoformans IFM. 40092 ([7]; 4 to 48 hours): 0.78 µg/mL; Minimal inhibitory concentration(MIC), A. niger A. 16404 ([8]; 4 to 48 hours): >100 µg/mL; Minimal inhibitory concentration(MIC), T. mentagrophytes B. 32663 ([11]; 4 to 48 hours): 50.0 µg/mL
Cc1cc(C)cc(C=C(F)OCC2COC(Cn3ccnc3)(c3ccc(F)cc3F)O2)c1 (mixture of isomers) [Ex. 41] | 25.0 | 12.5 | 3.13 | 3.13 | 6.25 | 6.25 | 0.78 | 12.5 | 25.0 | 6.25 | 25.0 | – | – | – | – | – | – | – | – | – | Minimal inhibitory concentration (MIC) ([11]; 4 to 48 hours): 3.13 µg/mL; Minimal inhibitory concentration (MIC) [12]: 0.78 µg/mL; Minimal inhibitory concentration (MIC) (Candida krusei K. 11655): 50.0 µg/mL; Minimal inhibitory concentration (MIC) [13]: 100 µg/mL
CCc1ccc(C(=C(F)N2CCN(c3ccc(OCC4COC(Cn5ccnc5)(c5ccc(Cl)cc5Cl)O4)cc3)CC2)C(F)(F)F)cc1 (mixture of isomers) [Ex. 127] | – | – | – | – | – | – | – | – | – | – | – | >100 | >100 | 0.78 | >100 | >100 | 1.56 | 3.13 | 3.13 | 3.13 | Minimal inhibitory concentration(MIC), Cry. neoformans A. 34144 ([3]; 4 to 48 hours): 0.78 µg/mL; Minimal inhibitory concentration(MIC), A furnigatus B. 19119 ([5]; 4 to 48 hours): >100 µg/mL; Minimal inhibitory concentration(MIC), T. mentagrophytes A. 9129 ([6]; 4 to 48 hours): 12.5 µg/mL; Minimal inhibitory concentration(MIC), Cry. neoformans IFM. 40092 ([7]; 4 to 48 hours): 0.39 µg/mL; Minimal inhibitory concentration(MIC), A. niger A. 16404 ([8]; 4 to 48 hours): >100 µg/mL; Minimal inhibitory concentration(MIC), T. mentagrophytes B. 32663 ([11]; 4 to 48 hours): 3.13 µg/mL
